Test results as given in patent US8153424B2, “Method of in vitro differentiation of neural stem cells, motor neurons and dopamine neurons from primate embryonic stem cells” (Wisconsin Alumni Research Foundation, priority 2001, dated 2012).
Entries after “also recorded” stand apart in the source; their conditions may differ. Values belong to the compound of their own block, whether it stands above or below them.

Columns and labels:
Type in all cases: cell-based, human
[1] = test system: hESC-derived neuroectodermal cells; assay: Motor neuron induction in adherent culture, immunocytochemistry and HB9 cell counting
Protocol: hESCs (lines H1 and H9, passages 19 to 42) were cultured and passaged weekly on a feeder layer of irradiated embryonic mouse fibroblasts as described (Thomson et al., supra, 1998). The undifferentiated state of ESCs were confirmed by typical morphology and expression of Oct4 and SSEA4. For neuroectodermal differentiation, hESCs were aggregated for four days and then cultured on an adhesive plastic surface for ten days in F12/DMEM supplemented with N2, heparin (2 ng/ml), and FGF2 (20 ng/ml) or RA (Zhang et al., supra, 2001). […]
Primary antibodies used in this study included polyclonal antibodies against neuronal class III βIII-tubulin (Covance Research Products, Richmond, Calif., 1:2000), nestin (Chemicon, Temecula, Calif., 1:750), Sox1 (Chemicon, 1:1000), synapsin I (Calbiochem, Darmstadt, German, 1:500), ChAT (Chemicon, 1:50), and VAChT (Chemicon, 1:1000), Isl½ (S. Pfaff), Otx2 (F. Vaccarino), and Oig2 (M. Nakafuku). […] For identification of electrophysiologically recorded cells, biocytin (Molecular Probes) filled cells were labeled with streptavidin-FITC (sigma, 1:200) and stained for ChAT. […]
The population of HB9-expressing cells among total differentiated cells (Hoechst labeled) was counted by a person who was blind to experimental groups either manually using the Metamorph software (Universal Imaging Corporation, Downingtown, Pa.) or by stereological measurement. […]

[2] = test system: hESC-derived neuroepithelial cells; assay: Ventral spinal progenitor and motor neuron differentiation in suspension culture, immunocytochemistry, cell counting and FACS
Protocol: For motor neuron induction, hESC-derived neuroepithelial cells at day 10 were first treated with RA (0.1 μM) for caudalization in a neural medium, which consisted of DMEM/F12 (Gibco), N2 supplement, heparin (Sigma, 2 μg/ml) and cAMP (Sigma, 1 μM). One week later (day 17), the posteriorized neuroectodermal cells were isolated, and suspended in the same neural medium in the presence of RA (0.1 μM) and SHH (100-200 ng/ml; R&D, 1845-SH) for one week. After that (day 24), brain-derived neurotrophic factor (BDNF), glial-derived neurotrophic factor (GDNF) and insulin-like growth factor-1 (IGF1) (10 ng/ml, PeproTech Inc.) were added to the culture. Purmorphamine (Calbiochem) at different concentrations (0.5, 1, 2 and 5 μM) was used instead of SHH in some experiments (see Results).
Immunohistochemical staining was performed according to Zhang et al., (Zhang et al. (2001), supra). Primary antibodies used in this study included polyclonal antibodies against Olig2 (1:500, Santa Cruz), Ki67 (1:200, Zymed), Otx2 (1:2000, Chemicon) and ChAT (1:200, Chemicon). Antibodies against MNR2 or HB9 (81.5C10) (1:50), Pax7 (1:2000), Nkx2.2 (1:50) and Hoxb4 (1:50) were purchased from Developmental Studies Hybridoma Bank (DSHB, Iowa City, Iowa). Polyclonal Phox2b and Irx3 antibodies were kindly provided by Dr. Jean-François Brunet (CNRS; École Normale Supérieure, Paris) and Dr. Thomas Jessell (Columbia University; New York, N.Y.), respectively. Images were collected using a Spot digital camera mounted onto a Nikon fluorescent microscope 600 (Fryer Inc.; Huntley, Ill.) or a confocal microscope (Nikon; Tokyo, Japan).
The population of Olig2 or HB9-expressing cells among total differentiated cells (Hoechst labeled) was counted in two ways, as previously described (Li et al. (2005), supra). Six to twelve clusters in each group were counted and data were expressed as Mean ± SEM. Differences between groups were compared by ANOVA test, and the statistical significance was defined as two-sided (p=0.05).
Cells were harvested using Accutase® (Innovative Cell), gently dissociated to single cells and washed with a FACS buffer (PBS, 0.1% NaN3, 2% donkey serum). After being fixed and permeabilized with ice cold 0.1% paraformaldehyde for 10 minutes and with 90% methanol for 30 minutes, cells Were then incubated in primary antibody (Olig2, goat IgG, 1:500) or a goat IgG control at […]. Cells were then washed and incubated with a corresponding secondary antibody, such as Alexa 488 conjugated, donkey, anti-goat IgG, for 2 hours followed by washing steps. Cells were analyzed by a Becton Dickinson FACSCaliber and analyzed with CellQuest Pro (BD Biosciences).

[3] = test system: SHH pathway; assay: RT-PCR of transcription factors in caudalized NE after 1 week of treatment
Protocol: Total RNA was extracted from motor neuron differentiation cultures using RNA STAT-60 (Tel-Test, Inc.; […] Carlsbad, Calif.) according to the manufacturer's protocol and was used as templates for the PCR reaction. PCR reaction was performed in a 15 μl mixture containing cDNA, primers and 1×PCR Master mix (Promega; Madison, Wis.). The following primers were used: Olig-2,[NT] ID NO:21), [NT] ID NO:22), 315 bp; […] ID NO:23), [NT] ID NO:24), 337 bp; […] ID NO:25), [NT] ID NO:26), 473 bp; […] ID NO:27), [NT] ID NO:28), 459 bp; […] ID NO:31), [NT] ID NO:32), 335 bp; GAPDH, [NT] ID NO:1), [NT] ID NO:2), 450 bp; […] ID NO:33), [NT] ID NO:34), 269 bp; […] ID NO:35), [NT] ID NO:36), 399 bp; […] ID NO:37), [NT] ID NO:38), 352 bp; and Gli1, [NT] ID NO:39), [NT] ID NO:40), 185 bp.

[4] = test system: hESC-derived neural precursors; assay: BrdU incorporation by dissociated ES cell-derived neural precursors; conditions: FGF2 20 ng/ml, EGF 20 ng/ml, LIF 5 ng/ml; each alone
Protocol: Histochemical and immunohistochemical staining. To better visualize the rosette formations, cultures with rosettes were rinsed with PBS and fixed in 4% paraformaldehyde and 0.25% glutaraldehyde for 1 hour. The fixed cells were then processed for embedding in plastic resin as described (Zhang et al., supra, 1999). The cultured cells were then sectioned in 1-μm thickness and stained with toluidine blue. For immunostaining, the coverslip cultures were immunostained with the following primary antibodies detected by appropriate fluorescent secondary antibodies detailed elsewhere (Zhang et al., supra, 2000; Zhang et al., supra, 1999): anti-nestin (polyclonal, gift of Dr. R. McKay of NINDS, 1:1,000); anti-polysialylated neuronal cell adhesion molecule (PSA-NCAM, mouse IgM, gift of Dr. G. Rougon of University of Marseille, France, 1:200); anti-Musashi-1 (rat IgG, gift of Dr. H. Okano, University of Tokyo, Japan, 1:500); anti-GFAP (polyclonal, Dako, 1:1,000); anti-human GFAP (Sternberg monoclonals, 1:10,000); O4 (mouse IgM, hybridoma supernatant, 1:50); anti-tyrosine hydroxylase (TH, Pel Freez, 1:500). The remaining antibodies were from Sigma: anti-βIII-tubulin (mouse IgG, 1:500); anti-neurofilament (NF) 68 (mouse IgG, 1:1,000); anti-NF 200 (polyclonal, 1:5,000); anti-MAP2ab (mouse IgG, 1:250); anti-γ-aminobutyric acid (GABA, polyclonal, 1:10,000); anti-glutamate (mouse IgG, 1:10,000). For bromodeoxyuridine (BrdU) incorporation, 4 coverslip cultures in each group were incubated with 2 μM of BrdU for sixteen hours before the cultures were fixed in 4% paraformaldehyde, denatured with 1N HCl and processed for immunolabeling and cell counting (Zhang et al., supra, 2000; Zhang et al., supra, 1999).

[5] = test system: hESC-derived motor neurons; assay: Whole-cell patch-clamp of hESC-derived motor neurons, spontaneous synaptic currents; conditions: combination of D-AP5 (40 μM) and CNQX (20 μM)

RA dose resulting in degeneration of some cells ([1]; chemically defined adherent cultures): over 1.0 μM
Compound: CC1=C(/C=C/C(C)=C/C=C/C(C)=C/C(=O)O)C(C)(C)CCC1 [RA, retinoic acid]
RA concentration inducing the highest proportion of HB9+ cells [1]: 0.1 to 1.0 µM

Compound: c1ccc2c(Oc3nc(Nc4ccc(N5CCOCC5)cc4)c4ncn(C5CCCCC5)c4n3)cccc2c1 [purmorphamine]
Time of treatment until Olig2+ cells first observed ([2]; after isolating NE cells (day 22 of hESC differentiation), a few days earlier than SHH/RA): ≤ 5 days | Olig2+ cells (highest percentage) ([2]; purmorphamine 1 μM with RA, 3.5 weeks, confirmed by FACS): around 40% | Olig2 expression in progenitors ([2]; purmorphamine 0.5, 1 and 2 uM in the presence of RA 0.1 μM, 3.5 weeks): robustly induced; also recorded: dose-dependent manner | Induction of Olig2+ or HB9+ cells ([2]; purmorphamine alone (without RA) from day 17): not sufficient | Expression of Olig2 and HB9 ([2]; purmorphamine with RA, 4.5 week): over 40% | Olig2+ motor neuron progenitors and HB9+ motor neurons of differentiated population ([2]; purmorphamine with RA, 4.5 weeks of hESC differentiation): at least 80% | HB9+ motor neurons also positive for ChAT ([2]; purmorphamine, attachment on coverslips and another week of differentiation): most | Expression pattern of class II factors (Nkx6.1, Nkx2.2) compared with SHH ([3]; 1 week of purmorphamine treatment): almost identical expression pattern | mRNA for Gli1 ([3]; 1 week of treatment): increased levels

Compound: EGF: epidermal growth factor (NSDSECPLSHDGYCLHDGVCMYIEALDKYACNCVVGYIGERCQYRDLKWWELR; Epidermal growth factor; UniProt P01133 971-1023, looked up)
BrdU incorporation (stimulation of precursor cell proliferation) [4]: could not be elicited

Compound: N#Cc1cc2c(cc1[N+](=O)[O-])=NC(=O)C(=O)N=2 [CNQX, 6-cyano-7-nitroquinoxaline-2,3-dione]
Effect on remaining inward (excitatory) synaptic currents [5]: blocked

Compound: LIF: leukemia inhibitory factor
BrdU incorporation (stimulation of precursor cell proliferation) [4]: could not be elicited

Compound: N[C@H](CCCP(=O)(O)O)C(=O)O [D-AP5, D-2-amino-5-phosphonovaleric acid]
Effect on remaining inward (excitatory) synaptic currents [5]: blocked
